Data: ChEMBL document CHEMBL3580632, “Lumiquinone A, an α-Aminomalonate-Derived Aminobenzoquinone from Photorhabdus luminescens” (2015)
Active and inactive are the calls of the source. The calls are words filed in the database; no cut-off is given here.

Legend:
[1] = test system: Saccharomyces cerevisiae; assay: Antimicrobial activity against Saccharomyces cerevisiae assessed as inhibition of microbial growth at 50 ug/disk incubated at 30 degC for 24 hrs by paper disk method; type: functional
[2] = test system: Escherichia coli; assay: Antimicrobial activity against Escherichia coli Nissle1917 assessed as inhibition of microbial growth incubated at 30 degC for 24 hrs by paper disk method; type: functional, organism-based
[3] = test system: Bacillus subtilis; assay: Antimicrobial activity against Bacillus subtilis NCIB3610 assessed as inhibition of microbial growth at 50 ug/disk incubated at 30 degC for 24 hrs by paper disk method; type: functional; settings: NCIB3610, 24 h, read-out: IZ

CC(C)c1c(O)cc(/C=C/c2ccccc2)cc1O
growth inhibition (GI) [1]: Active
growth inhibition (GI) [2]: inactive

CC(C)C1=C(O)C(=O)C(/C=C/c2ccccc2)=C(N)C1=O
growth inhibition (GI) [2]: inactive
zone of inhibition at 50 µg/disc [3]: 4 mm
